Tests used:
STZ-diabetic rats [1] = experiment: Neuropathic pain in STZ model (Hargreaves thermal nociception); assay type: in vivo, Sprague-Dawley rats; settings: 10 mg/kg i.p. daily, started 45 days post-STZ
Procedure: In vivo Assay of NAALADase Inhibitors on Neuropathic Pain in STZ Model
Male Sprague-Dawley rats (200–225 g) were rendered diabetic by intravenous administration of streptozotocin (“STZ”, 70 mg/kg in phosphate buffered saline). Diabetic animals were divided into five groups: one group receiving Compound A (10 mg/kg or 1 mg/kg), Compound D (10 mg/kg or 1 mg/kg) or vehicle. Another group of animals (non-STZ treated) served as non-diabetic controls. Drug/vehicle treatment was started in diabetic animals 45 days post-STZ administration. STZ-induced diabetic rats were tested for sensitivity to a heat source as soon as blood glucose levels rose to 320 mg/dl or above (30 days post STZ). The rats were then acclimated to a Hargreaves apparatus and thermal nociception was monitored using an infrared heat source directed into the dorsal surface of the hindpaw, and the time taken for the animal to remove its paw noted to the nearest 0.1 seconds (see Hargreaves et al., J. Biol. Chem. (1988) 263(36):19392–7 for a description of the experimental method). The intensity of the beam source was adjusted such that the mean latency for control animals (non-STZ treated) was approximately 10 seconds. Each animal was tested 8 times and the mean difference score (between mean non-diabetic control latency and mean diabetic latency) are graphically presented in FIGS. 7A and 7B.

STZ-diabetic rats [2] = experiment: Diabetic neuropathy in STZ model (motor and sensory nerve conduction velocity); assay type: in vivo
Procedure: In vivo Assay of NAALADase Inhibitors on Diabetic Neuropathy in STZ Model
Motor and sensory nerve conduction velocity was also measured in STZ-diabetic animals after 4, 8 and 12 weeks of treatment (see De Koning et al., supra, for a description of the experimental method). Briefly, stimulating needle electrodes were inserted close to the sciatic and tibial nerves with recording electrodes being placed subcutaneously over the distal foot muscles, in anesthetized rats.

transgenic G1H mice = experiment: Onset of ALS in transgenic mice model of FALS; assay type: in vivo; settings: for DISEASE ONSET: 50 mg/kg daily intraperitoneal
Procedure: Effect of NAALADase Inhibitors on Onset of ALS
The effect of NAALADase inhibitors on the onset of ALS was tested using the transgenic mice model of familial amyotrophic lateral sclerosis (“FALS”), which is detailed in Gurney, M., Annals of Neurology (1996) 39:147–157, and otherwise well known in the art. One month old transgenic G1H mice were treated with daily intraperitoneal injections of a vehicle (50 mM HEPES-buffered saline) or a NAALADase inhibitor (50 mg/kg Compound A). Clinical symptoms of the mice were monitored daily. The onset of clinical disease was scored by examining each mouse for its shaking of limbs when suspended in the air by its tail, cross spread of spinal reflexes, hindlimb paralysis, body weight and wheel running activity.

O=C(O)CCC(CP(=O)(O)Cc1c(F)c(F)c(F)c(F)c1F)C(=O)O (centres unmarked) [Compound A]
hyperalgesic response (withdrawal latency difference score) (STZ-diabetic rats [1]): completely reversed
motor and sensory nerve conduction velocities (STZ-diabetic rats [2]; 10 mg/kg daily for 4, 8 and 12 weeks, FIGS. 9A and 9B): tended to improve (increase) both motor and sensory nerve conduction velocities
treatment time at which significant improvement of motor nerve conduction velocity was observed (STZ-diabetic rats [2]; 10 mg/kg daily, FIG. 9A): 12 weeks
treatment time at which significant improvement of sensory nerve conduction velocity was observed (STZ-diabetic rats [2]; 10 mg/kg daily, FIG. 9B): 8 weeks
DIFFERENCE in disease onset vs vehicle (transgenic G1H mice; Study 1): 32
DISEASE ONSET (transgenic G1H mice; Study 1): 221 days
DIFFERENCE in disease onset vs vehicle (transgenic G1H mice; Study 2): 25
DISEASE ONSET (transgenic G1H mice; Study 2): 166 days

— patent US7138543B2, “Thiolalkyl benzoic acid derivatives” (Guilford Pharmaceuticals Inc., priority 2001, dated 2006)
